Experimental data from patent publication US6569612B1, “Photographic element containing a high-dye-yield coupler for producing a yellow hue” (Eastman Kodak Company, priority 2001, dated 2003).
Read-outs that look alike come from different tables or passages of the source. Blank lines part the entries; values can stand above or below the compound they belong to.

Assay: Measuring pKas of couplers in TRITON X-100 media
Type: physicochemical
Method: Procedure for Measuring pKas of Couplers in TRITONX-100 Media:
A solution of the coupler that was ca. 5E-3 M was made with 5.0 mL of dimethyl sulfoxide solvent. A 0.50-mL aliquot of the solution was added to 3.18 g of Triton X- 100 surfactant in a 50-mL volumetric flask. Then ca. 25 mL of ca. 40-deg C. distilled water was added while swirling vigorously. The solution was then cooled to ambient temperature and diluted to 50 mL with water. Various phosphate buffer solutions as potassium salts were prepared with pHs ranging from 3.73 to 12 with ionic strength of 0.75. Ionic strength computations were done using the three pKas for phosphoric acid. A 2.0-mL aliquot of the stock coupler solution was mixed with 2.0 mL of chosen buffer in a 5-dram vial. […] A wavelength between 310 and 350 nm was typically chosen. The pH of the mixture was then measured with a CORNING Model 125 meter. A baseline reference blank spectrum was run with TRITON X-100 (surfactant) and pH 7 buffer. The data of corrected absorbances (differences from the blank spectrum) and pHs were used to compute by least-squares the pKa and the other two unknowns of high and low limiting densities. The pKa measurements are made with an experimental uncertainty within ±0.10, which depends on sources of material, the number of experimental points, number of replicates, and the like.

[1] = Table 3, TRITON X-100 media, read-out: pKa
[2] = Table 5, TRITON X-100 media, read-out: pKa
[3] = Table 7, TRITON X-100 media, read-out: pKa
[4] = Table 4, TRITON X-100 media, read-out: pKa
[5] = Table 8, TRITON X-100 media, read-out: pKa

pKa [1]: 5.1
SMILES: CCCCCCCCCCCCOC(=O)c1ccc(Cl)c(NC(=O)C(C(=O)c2ccc(OC)cc2)N2C(=O)C(OCC)N(Cc3ccccc3)C2=O)c1 (stereo not drawn) [CY-1, reference compound]

pKa [1]: 10.6
SMILES: CCC(C)(C)c1cc(C(C)(C)CC)c2oc(/C(C#N)=C/c3ccc(N(C(=O)OC(C(=O)Nc4cc(CS(=O)(=O)c5ccccc5)ccc4Cl)C(=O)c4ccc(OC)cc4)C4CCCC4)cc3C)nc2c1 (stereo not drawn) [CY-4, reference compound]

pKa [1]: 10
SMILES: CCC(C)(C)c1cc(C(C)(C)CC)c2oc(/C(C#N)=C/c3ccc(N(C(=O)OC(C(=O)Nc4cc(CS(=O)(=O)c5ccc(O)cc5)ccc4Cl)C(=O)c4ccc(OC)cc4)C4CCCC4)cc3C)nc2c1 (stereo not drawn) [CY-5, reference compound]

pKa [1]: 9.1
SMILES: CCCCCCCCCCCCOC(=O)c1ccc(Cl)c(NC(=O)C(OC(=O)N(C)c2ccc(/C=C(\C#N)c3nc4cc(C(C)(C)C)ccc4o3)c(C)c2)C(=O)c2ccc(OC)cc2)c1 (stereo not drawn) [CY-7, reference compound]

pKa [2]: 9.5
SMILES: CCCCCCCCCCCCNS(=O)(=O)c1ccc(NC(=O)C(OC(=O)N(c2ccc(/C=C(\C#N)c3nc4cc(C(C)(C)C)ccc4o3)c(C)c2)C2CCCC2)C(=O)c2ccc(OC)cc2)c(Cl)c1 (stereo not drawn) [CY-8, reference compound]

pKa (standard measurement, read-out: pKa at the coupling site): 8.7
SMILES: CCCCCCCCCCCCCCCCNS(=O)(=O)c1ccc(Cl)c(NC(=O)C(OC(=O)N(CCCCCCCCCCCC)c2ccc(/C=C(\C#N)c3nc4ccccc4o3)c(C)c2)C(=O)c2ccc(OC)cc2)c1 (stereo not drawn) [CY-12, reference compound]

pKa [3]: 8.8
SMILES: CCCCCCCCCCCCCCCCNS(=O)(=O)c1ccc(Cl)c(NC(=O)C(OC(=O)N(CCCC)c2ccc(/C=C(\C#N)c3nc4ccccc4o3)c(C)c2)C(=O)c2ccc(OC)cc2)c1 (stereo not drawn) [CY-13, reference compound]

More lines, now with the values behind:

SMILES: CCCCCCCCCCCCS(=O)(=O)c1ccc(NC(=O)C(OC(=O)N(C)c2ccc(/C=C(\C#N)c3nc4cc(C(C)(C)C)ccc4o3)c(C)c2)C(=O)c2ccccc2)c(Cl)c1 (stereo not drawn) [Coupler Y-1]
pKa [1]: 7.4

SMILES: CCCCCCCCCCCCCCCCNS(=O)(=O)c1ccc(Cl)c(NC(=O)C(OC(=O)N(C)c2ccc(/C=C(\C#N)c3nc4cc(C(C)(C)C)ccc4o3)c(C)c2)C(=O)c2ccc(OC)cc2)c1 (stereo not drawn) [Coupler Y-2]
pKa [1]: 8.5

SMILES: CCCCCCCCCCCCS(=O)(=O)c1ccc(NC(=O)C(OC(=O)N(c2ccc(/C=C(\C#N)c3nc4cc(C(C)(C)C)ccc4o3)c(C)c2)C2CCCC2)C(=O)c2ccccc2)c(Cl)c1 (stereo not drawn) [Coupler Y-3]
pKa [4]: 7.8

SMILES: COc1ccc(C(=O)C(OC(=O)N(c2ccc(/C=C(\C#N)c3nc4cc(C(C)(C)C)ccc4o3)c(C)c2)C2CCCC2)C(=O)Nc2ccc([N+](=O)[O-])cc2Cl)cc1 (stereo not drawn) [Coupler Y-4]
pKa [4]: 8.2

SMILES: CCC(C)(C)c1cc(C(C)(C)CC)c2oc(/C(C#N)=C/c3ccc(N(C(=O)OC(C(=O)Nc4ccc([N+](=O)[O-])cc4Cl)C(=O)c4ccccc4)C4CCCC4)cc3C)nc2c1 (stereo not drawn) [Coupler Y-5]
pKa [2]: 7.4

SMILES: CCCCCCCCCCCCNS(=O)(=O)c1ccc(NC(=O)C(OC(=O)N(c2ccc(/C=C(\C#N)c3nc4ccccc4o3)c(C)c2)C2CCCC2)C(=O)c2ccccc2)c(Cl)c1 (stereo not drawn) [Coupler Y-9]
pKa [3]: 8

SMILES: CCCCCCCCCCCCS(=O)(=O)c1ccc(NC(=O)C(OC(=O)N(c2ccc(/C=C(\C#N)c3nc4ccccc4o3)c(C)c2)C2CCCC2)C(=O)c2ccc(Cl)cc2)c(Cl)c1 (stereo not drawn) [Coupler Y-10]
pKa [5]: 7.2

SMILES: CCCCCCCCCCCCS(=O)(=O)c1ccc(NC(=O)C(OC(=O)N(CC)c2ccc(/C=C(\C#N)c3nc4cc(C(C)(C)CC(C)(C)C)ccc4o3)c(C)c2)C(=O)c2ccc(Cl)cc2)c(Cl)c1 (stereo not drawn) [Coupler Y-11]
pKa [5]: 7
